# Test results as given in US20090155352A1, “Microemulsion containing indolocarbazole compound and dosage forms containing the same” (Cephalon, Inc., priority 2007, published 2009).
# What was measured:
# [1] = AIBN forced degradation screen of antioxidants in lestaurtinib microemulsions; format: physicochemical; settings: AIBN screening; for antioxidant effect against oxidation of lestaurtinib microemulsion: first experiment, thirteen formulations
# Protocol: Various antioxidants were evaluated for their effectiveness in relation to the composition of the invention. In an initial experiment, capsules containing a lestaurtinib composition prepared according to the invention were placed on accelerated stability conditions. Several impurities were determined (LC-MS) to be related to the oxidation of lestaurtinib. Subsequently, a forced degradation experiment was performed using the radical initiator azoisobutyronitrile (AIBN) adapted for use with lestaurtinib. This was based on the fact that AIBN radical initiates the autoxidation mechanism that the majority of active ingredients follow for oxidation.
# Using AIBN as a screening tool, a series of microemulsions prepared in accordance with the invention were formulated using different antioxidants to identify suitable solutions for preventing degradation of the composition. The first experiment used thirteen formulations using several classes of antioxidants (i.e., oxygen scavengers, sacrificial antioxidants and H-atom donors) to determine which reaction pathway was critical for disrupting the oxidation process. From this first experiment, several antioxidants were identified as efficacious: ascorbic acid, vitamin E, BHA and BHT.
# A second experiment was then performed based on the information obtained from the first experiment. The second experiment evaluated combinations of antioxidants from different classes, different isomers of the same antioxidants, and mixtures of water-soluble and oil-soluble antioxidants.
# [2] = Water solubility of lestaurtinib; format: physicochemical; settings: at 22° C.
# [3] = Solubilized concentration of lestaurtinib in microemulsion formed with added water
# Protocol: In one embodiment, microemulsions containing solubilized indolocarbazole compounds, e.g., lestaurtinib, can be prepared using the hydrophilic component and water in the excipient composition but without the presence of the surfactant, e.g., MYRJ®. In one example, a composition without surfactant was prepared as follows. Lestaurtinib 120 mg was weighed into a glass vial and 2 mL of molten PEG-1450 was added.
# [4] = Maximum solubility of lestaurtinib in prior solid state solution / SEDDS formulations; settings: vehicle 25% PEG 400, 25% PEG 1000, 50% MYRJ 52, no added water
# Source text: This formulation was a self-emulsifying drug delivery system (SEDDS) comprised of a blend of polyoxyethylene glycols (PEGs) and MYRJ® 52 (polyoxyethylene 40 stearate surfactant available from Croda N.A., Parsippany, N.J.).
# [5] = microemulsion with water addition
molecule,measurement,setting,value
O=C1O[C@H]([C@@H](O)CO)C(O)=C1O [ascorbic acid],antioxidant effect against oxidation of lestaurtinib microemulsion,[1],efficacious
"COc1ccc(O)c(C(C)(C)C)c1 [BHA, butylhydroxyanisole]",antioxidant effect against oxidation of lestaurtinib microemulsion,[1],efficacious
vitamin E,antioxidant effect against oxidation of lestaurtinib microemulsion,[1],efficacious
"C[C@]12O[C@H](C[C@]1(O)CO)n1c3ccccc3c3c4c(c5c6ccccc6n2c5c31)CNC4=O [lestaurtinib, [9S-(9α,10β,12α)]-2,3,9,10,11,12-hexahydro-10-hydroxy-10-(hydroxymethyl)-9-methyl-9,12-epoxy-1H-diindolo[1,2,3-fg:3′,2′,1′-kl]pyrrolo[3,4-i][1,6]benzodiazocin-1-one]",solubility,[2],1.7 µg/mL
same,final concentration of lestaurtinib in clear solution,"[3]; Example 13, PEG-1450 and water, without surfactant, by HPLC",59.2 mg/mL
same,solubilized concentration achieved using the invention,[3]; [5],87 mg/g
same,solubilized concentration achieved using the invention (total composition weight),[3]; [5],about 9%
same,maximum solubility obtainable in SEDDS formulation,[4],about 29 mg/g
O=S([O-])S(=O)(=O)[O-].[K+].[K+] [potassium metabisulfite],effect on impurity levels in final formulation,[1]; second experiment,decreased the overall impurity levels
